Here are results for 7 molecules from article PMC7734574 (International Journal of Molecular Sciences, 2020).

Series [1] is described as follows: thermal back isomerization (half-life of the metastable form) by UV/VIS spectroscopy. As to conditions: 37 °C, DMSO (UV/VIS). Format: physicochemical. As for the experimental part:
For the meta-linked derivative 3 (Figure 6a), a maximum shift of the PSS toward the Z-isomer can be achieved by irradiation at 365 nm. By NMR spectroscopy, a Z-isomer content of 83% was determined in the PSS. […] Back switching to the E-isomers E-3 and E-4 is possible by irradiation at 435 nm (3) or 470 nm (4), respectively. Furthermore, half-lives of the azobenzene derivatives were determined by UV/VIS spectroscopy at 37 °C in DMSO.
(§1) UV/VIS spectra were measured using a Varian Cary® 50 Scan UV/VIS photometer from Agilent (Waldbronn, Germany) equipped with a Varian Cary PCB 150 thermostat either at 25 °C or 37 °C. […] The fitting of thermal relaxations was done with GraphPad Prism® (v.7.03, GraphPad Software, San Diego, CA, USA).

Series [2] in a line: isomer ratio of the photostationary state by NMR spectroscopy. Format: physicochemical. An excerpt:
(§2) In order to determine the isomer ratios of the PSS as well as to identify the optimal excitation wavelengths for the E/Z isomerizations, compounds 3–7 were characterized by UV/VIS and NMR spectroscopy. Due to their poor water solubility along with the low molar absorption coefficients of diazocines, all compounds were initially analyzed in DMSO.

Series [3] has as its system lysates of human umbilical vein endothelial cells (HUVECs). Description: kinome activity profiling (PamGene) of treated cell lysate. Format: biochemical. As to conditions: 20 µM, irradiated at 405 nm, HUVEC lysate, 10% DMSO.
The target of series [4] is T1, VEGFR-2 (purified kinase domain, KDR active) (Homo sapiens, UniProt P35968). Description: luminescence-based ADP-Glo kinase assay under controlled light conditions. Format: biochemical. Further details: VEGFR-2 (purified kinase domain, KDR active, Promega); purchased Promega.
For series [5] the following is noted: axitinib, DMSO (NMR), cited from earlier work.
In series [6] the target is T1, VEGFR-2 (purified kinase domain, KDR active). As to conditions: cited from earlier work.
A short description of series [7]: photoswitching followed by UV/VIS spectroscopy. As to conditions: for photoconversion on back switching to the E-isomer: DMSO. Format: physicochemical.
Excerpt: as §2
By irradiation at 530 nm, the diazocine-based compounds 5–7 can be switched back quantitatively to the Z-isomer. Since the associated spectra completely overlap with the spectra of the pure Z-isomers, they are not shown for reasons of clarity. To check the reversibility of the photoswitching, long-term stability measurements with 20 switching cycles were performed. For this purpose, the compounds were irradiated alternately for 20 s at 405 nm and 530 nm, respectively. After each irradiation, an UV/VIS spectrum was recorded.
as §1

Setting [8] is: DMSO (NMR), irradiation at 405 nm.
[9] abbreviates: PSS after irradiation at 405 nm, 10% DMSO.
Where [10] appears, read: Z-isomer, in the dark (unirradiated), 10% DMSO.
Setting [11] is: after irradiation at 405 nm, 10% DMSO.
Where [12] appears, read: DMSO, NMR, irradiation at 365 nm.
[13] abbreviates: E-isomer, in the dark (unirradiated), 1% DMSO.
Where [14] appears, read: both irradiated and unirradiated compounds.

Read-outs that look alike come from different tables or passages of the source. Some results are limits rather than exact numbers.

T1 sequence (P35968 834-1162 limits assumed): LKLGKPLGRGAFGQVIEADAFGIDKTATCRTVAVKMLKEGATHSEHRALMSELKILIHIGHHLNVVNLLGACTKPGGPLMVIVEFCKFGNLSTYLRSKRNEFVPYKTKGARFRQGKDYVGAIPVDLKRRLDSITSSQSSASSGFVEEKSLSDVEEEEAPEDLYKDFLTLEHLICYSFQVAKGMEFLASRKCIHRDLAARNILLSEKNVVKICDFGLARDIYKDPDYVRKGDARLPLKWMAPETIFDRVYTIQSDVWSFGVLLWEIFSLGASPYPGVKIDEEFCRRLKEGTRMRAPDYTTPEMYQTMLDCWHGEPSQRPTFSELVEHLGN

`CNC(=O)c1ccccc1Sc1ccc2c(-c3ccc4c(c3)/N=N\c3ccccc3SC4)n[nH]c2c1` [Compound 5, (Z)‐2‐((3‐(12H‐dibenzo[b,f][1,4,5]thiadiazocin‐3‐yl)‐1H‐indazol‐6‐yl)thio)‐N‐methylbenzamide]: in series [1], the “k of exponential fit of thermal back isomerization” value is recorded as 0.09514. Besides, the “PSS (E/Z%)” value in series [2] (setting [8]) was 47/53. Moreover, in series [3], the “kinase activities (phosphorylation degree of substrate peptides) compared to DMSO” value is listed as “moderate decrease of kinase activities”. The IC50 in series [4] (setting [9]) was 214 nM; in series [4] (setting [10]) it was above 10000 nM. For the same molecule, the “residual activity (plateau)” value in series [4] (setting [11]) was 6%.

`CNC(=O)c1ccccc1Sc1ccc2c(/C=C/c3ccccn3)n[nH]c2c1` [Compound 1, Axitinib]: the “PSS (E/Z%)” value in series [5] (365 nm (E → Z)) is listed as 51/49; in series [5] (385 nm (Z → E)), 88/12. Further, the “difference in biological activities of Z-axitinib and E-axitinib” value in series [6] is reported as 43 fold.

Consider `CNC(=O)c1ccccc1Sc1ccc2c(-c3ccc4c(c3)/N=N\c3ccccc3CC4)n[nH]c2c1` [Compound 7, (Z)‐2‐((3‐(11,12‐dihydrodibenzo[c,g][1,2]diazocin‐3‐yl)‐1H‐indazol‐6‐yl)thio)‐N‐methylbenzamide], for which the “k of exponential fit of thermal back isomerization” value in series [1] turned out to be 0.4711. Moreover, the “PSS (E/Z%)” value in series [2] (setting [8]) was 60/40. The “E-isomer content in the PSS” value in series [2] (DMSO, irradiation at 405 nm) turned out to be 60%. For the same molecule, in series [4] (setting [9]), the IC50 came to 493 nM. The molecule also displayed a residual activity in series [4] (Z-isomer in the dark, 10% DMSO) of at least 37%.

For `CNC(=O)c1ccccc1Sc1ccc2c(-c3cccc(/N=N/c4ccccc4)c3)n[nH]c2c1` [Compound 3, (E)‐N‐methyl‐2‐((3‐(3‐(phenyldiazenyl)phenyl)‐1H‐indazol‐6‐yl)thio) benzamide], the “k of exponential fit of thermal back isomerization” value in series [1] was 0.01608. Also, the “PSS (E/Z%)” value in series [2] (setting [12]) was 17/83. In addition, in series [2] (setting [12]), the “Z-isomer content in the PSS” value worked out at 83%. Besides, the “photoconversion on back switching to the E-isomer” value in series [7] (irradiation at 435 nm) is “almost quantitative”. Besides, the “residual activity (plateau)” value in series [4] (E-isomer in the dark) stood at 33%; in series [4] (after irradiation at 365 nm), 5%. The IC50 was 1080 nM in series [4] (setting [13]); 1290 nM in series [4] (PSS after irradiation at 365 nm, 1% DMSO); around 1000 nM in series [4] (setting [14]).

For `CNC(=O)c1ccccc1Sc1ccc2c(-c3ccc4c(c3)CSc3ccccc3/N=N\4)n[nH]c2c1` [Compound 6, (Z)‐2‐((3‐(12H‐dibenzo[b,f][1,4,5]thiadiazocin‐2‐yl)‐1H‐indazol‐6‐yl)thio)‐N‐methylbenzamide], the “k of exponential fit of thermal back isomerization” value in series [1] worked out at 0.1853. In addition, the “PSS (E/Z%)” value in series [2] (setting [8]) is 25/75. Further, in series [2] (DMSO, irradiation at 405 nm), the “E-isomer content in the PSS” value was determined as 25%. For the same molecule, the 50% inhibitory concentration (IC50) in series [4] (setting [9]) is 251 nM; in series [4] (setting [10]), above 10000 nM. In series [4] (setting [11]), the “residual activity (plateau)” value is 10%.

Regarding `CNC(=O)c1ccccc1Sc1ccc2c(-c3ccc(/N=N/c4ccccc4)cc3)n[nH]c2c1` [Compound 4, (E)‐N‐methyl‐2‐((3‐(4‐(phenyldiazenyl)phenyl)‐1H‐indazol‐6‐yl)thio) benzamide], the “k of exponential fit of thermal back isomerization” value in series [1] is on record as 0.121. Moreover, the “PSS (E/Z%)” value in series [2] (DMSO (NMR), irradiation at 385 nm) is reported as 20/80. The “photoconversion on back switching to the E-isomer” value in series [7] (irradiation at 470 nm) is reported as “almost quantitative”. The “residual activity (plateau)” value was found to be 43% in series [4] (E-isomer in the dark) and 13% in series [4] (after irradiation at 385 nm). Also, the IC50 in series [4] (setting [13]) was 1020 nM; in series [4] (PSS after irradiation at 385 nm, 1% DMSO) it was 1440 nM; in series [4] (setting [14]) it was around 1000 nM.

On to `CNC(=O)c1ccccc1Sc1ccc2c(/N=N/c3ccccn3)n[nH]c2c1` [Compound 2, (E)‐N‐methyl‐2‐((3‐(pyridin‐2‐yldiazenyl)‐1H‐indazol‐6‐yl)thio)benzamide], for which the “spectral change upon irradiation” value in series [7] (20 µM in DMSO and water with 10 % DMSO, 365, 385, 405, 420 and 470 nm) is reported as “No spectral change”. The same molecule returned an IC50 in series [4] (setting [13]) of 415 nM.
